Laboratory results published in patent US20210269434A1, “TRICYCLIC COMPOUNDS AS INHIBITORS OF KRAS” (Incyte Corporation, priority 2020, published 2021).

What was measured:
KRAS G12C = KRAS G12C (Homo sapiens, UniProt P01116, G12C); test: GDP-GTP exchange assay (KRAS_G12C exchange); format: biochemical; settings: bodipy-GDP loaded KRAS G12C 2.5 nM, SOS1 150 nM, GppNHp; 2 hours pre-incubation, 2 hours reaction; read-out: G12C_exchange
In short: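 Fluorescence exchange of bodipy-GDP for GppNHp, SOS1-driven, read at 485/520 nm; IC50 from four-parameter variable-slope fit. Both mutants used 2.5 nM final labelled protein and a 2 h compound pre-incubation. G12C reaction had 500 uM GppNHp and 150 nM SOS1 for 2 h; G12D ran 4 h.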

[1] = test system: MIA PaCa-2 (KRAS G12C) cells; test: Cellular pERK HTRF assay (KRAS_G12C pERK); format: cell-based, human; settings: Homo sapiens, MIA PaCa-2, 4 hours incubation, read-out: G12C_pERK
In short: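 Phospho-ERK1/2 HTRF readout (665 and 620 nm) in lysed MIA PaCa-2 cells, antibodies incubated overnight at room temperature. Cells seeded the day before and treated with G12C compounds for 4 h at 37 °C; IC50 fitted to percent inhibition against log inhibitor concentration.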

Chain of KRAS G12C (P01116 1-188 isoform P01116-2 G12C): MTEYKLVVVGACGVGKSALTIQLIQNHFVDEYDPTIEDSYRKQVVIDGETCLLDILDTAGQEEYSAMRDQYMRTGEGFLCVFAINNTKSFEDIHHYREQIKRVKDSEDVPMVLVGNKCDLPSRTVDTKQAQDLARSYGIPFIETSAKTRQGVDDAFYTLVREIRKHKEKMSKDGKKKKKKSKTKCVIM

IC50 (KRAS G12C)	IC50 [1]	SMILES
≤ 100 nM	≤ 100 nM	Cc1cc2c(nc(N3CC(C)(N(C)C)C3)c3nnn([C@H]4CCN(C(=O)/C=C/C(F)F)[C@H](CC#N)C4)c32)c(F)c1-c1c(C)c(Cl)cc2[nH]ncc12 [Example 197a, 2-((2S,4S)-4-(7-(6-chloro-5-methyl-1H-indazol-4-yl)-4-(3-(dimethylamino)-3-methylazetidin-1-yl)-6-fluoro-8-methyl-1H-[1,2,3]triazolo[4,5-c]quinolin-1-yl)-1-((E)-4,4-difluorobut-2-enoyl)piperidin-2-yl)acetonitrile]
≤ 100 nM	≤ 100 nM	C=CC(=O)N1CC[C@H](n2nnc3c(N4CC(C)(N(C)C)C4)nc4c(F)c(-c5cccc(C)c5Cl)c(C(F)(F)F)cc4c32)C[C@H]1CC#N (single isomer, unassigned) [Example 235a]
≤ 100 nM	≤ 100 nM	Cc1cc2c(nc(N3CC(C)(N(C)C)C3)c3nnn([C@H]4CCN(C(=O)/C=C/CN(C)C)[C@H](CC#N)C4)c32)c(F)c1-c1c(C)c(Cl)cc2[nH]ncc12 [Example 196a, 2-((2S,4S)-4-(7-(6-chloro-5-methyl-1H-indazol-4-yl)-4-(3-(dimethylamino)-3-methylazetidin-1-yl)-6-fluoro-8-methyl-1H-[1,2,3]triazolo[4,5-c]quinolin-1-yl)-1-((E)-4-(dimethylamino)but-2-enoyl)piperidin-2-yl)acetonitrile]
≤ 100 nM	≤ 100 nM	C=CC(=O)N1CCC(n2nnc3c(N4CC(C)(N(C)C)C4)nc4c(F)c(-c5cccc6cccc(C#N)c56)c(Cl)cc4c32)C[C@H]1CC#N (single isomer, unassigned) [Example 220a]
≤ 100 nM	≤ 100 nM	CC#CC(=O)N1CC[C@H](n2nnc3c(N4CC(C)(N(C)C)C4)nc4c(F)c(-c5cccc(C)c5C)c(C)cc4c32)C[C@H]1CC#N [Example 226, 2-((2S,4S)-1-(but-2-ynoyl)-4-(4-(3-(dimethylamino)-3-methylazetidin-1-yl)-7-(2,3-dimethylphenyl)-6-fluoro-8-methyl-1H-[1,2,3]triazolo[4,5-c]quinolin-1-yl)piperidin-2-yl)acetonitrile]
≤ 100 nM	≤ 100 nM	C=CC(=O)N1CCC(n2nnc3c(OC[C@@H]4CCCN4C)nc4c(F)c(-c5cc(O)cc6ccccc56)c(Cl)cc4c32)CC1 (single isomer, unassigned) [Example 14a]
≤ 100 nM	≤ 100 nM	C=CC(=O)N1CC[C@H](n2nnc3c(N4CC(N(C)C)C4)nc4c(F)c(-c5c(C)c(Cl)cc6[nH]ncc56)c(C#N)cc4c32)C[C@H]1CC#N [Example 169, 1-((2S,4S)-1-acryloyl-2-(cyanomethyl)piperidin-4-yl)-7-(6-chloro-5-methyl-1H-indazol-4-yl)-4-(3-(dimethylamino)azetidin-1-yl)-6-fluoro-1H-[1,2,3]triazolo[4,5-c]quinoline-8-carbonitrile]
≤ 100 nM	≤ 100 nM	CC#CC(=O)N1CC[C@H](n2nnc3c(O[C@@H](C)CN(C)C)nc4c(F)c(-c5cccc(Cl)c5C)c(Cl)cc4c32)C[C@H]1CC#N [Example 94, 2-((2S,4S)-1-(but-2-ynoyl)-4-(8-chloro-7-(3-chloro-2-methylphenyl)-4-(((S)-1-(dimethylamino)propan-2-yl)oxy)-6-fluoro-1H-[1,2,3]triazolo[4,5-c]quinolin-1-yl)piperidin-2-yl)acetonitrile]
≤ 100 nM	≤ 100 nM	CC#CC(=O)N1CC[C@H](n2nnc3c(N4CC(C)(N(C)C)C4)nc4c(F)c(-c5cccc(Cl)c5C)c(C(F)(F)F)cc4c32)C[C@H]1CC#N [Example 239a, 2-((2S,4S)-1-(but-2-ynoyl)-4-(7-(3-chloro-2-methyl-phenyl)-4-(3-(dimethyl-amino)-3-methylazetidin-1-yl)-6-fluoro-8-(trifluoro-methyl)-1H-[1,2,3]triazolo-[4,5-c]quinolin-1-yl)piperidin-2-yl)acetonitrile]
≤ 100 nM	≤ 100 nM	COC/C=C/C(=O)N1CC[C@H](n2nnc3c(OC[C@@H]4CCCN4C)nc4c(F)c(-c5ccccc5C(F)(F)F)c(C)cc4c32)C[C@H]1CC#N (single isomer, unassigned) [Example 157a]
≤ 100 nM	≤ 100 nM	Cc1c(Cl)cc2[nH]ncc2c1-c1c(Cl)cc2c(nc(OC[C@@H]3CCCN3C)c3ncn([C@H]4CCN(C(=O)/C=C/CN(C)C)[C@H](CC#N)C4)c32)c1F [Example 181a, 2-((2S,4S)-4-(8-chloro-7-(6-chloro-5-methyl-1H-indazol-4-yl)-6-fluoro-4-(((S)-1-methylpyrrolidin-2-yl)-methoxy)-1H-imidazo[4,5-c]quinolin-1-yl)-1-((E)-4-(dimethylamino)but-2-enoyl)piperidin-2-yl)acetonitrile]
≤ 100 nM	≤ 100 nM	C=CC(=O)N1CC[C@H](n2cnc3c(N4CC(N(C)C)C4)nc4c(F)c(-c5ccnc6ccccc56)c(Cl)cc4c32)C[C@H]1CC#N (single isomer, unassigned) [Example 74a]
≤ 100 nM	≤ 100 nM	C=CC(=O)N1CC[C@H](n2nnc3c(OC[C@@H]4CCCN4C)nc4c(F)c(-c5ccccc5C(F)(F)F)c(C)cc4c32)C[C@H]1CC#N (single isomer, unassigned) [Example 160a]
≤ 100 nM	≤ 100 nM	COC/C=C/C(=O)N1CC[C@H](n2nnc3c(O[C@@H](C)CN(C)C)nc4c(F)c(-c5cccc(C)c5C)c(C)cc4c32)C[C@H]1CC#N [Example 145, 2-((2S,4S)-4-(4-(((S)-1-(dimethylamino)propan-2-yl)oxy)-7-(2,3-dimethylphenyl)-6-fluoro-8-methyl-1H-[1,2,3]triazolo[4,5-c]quinolin-1-yl)-1-((E)-4-methoxybut-2-enoyl)piperidin-2-yl)acetonitrile]
≤ 100 nM	≤ 100 nM	C=CC(=O)N1CC[C@H](n2nnc3c(N4CC(C)(N(C)C)C4)nc4c(F)c(-c5c(C)c(Cl)cc6[nH]ncc56)c(C)cc4c32)C[C@H]1CC#N (single isomer, unassigned) [Example 193a]
100 to 1000 nM	1000 to 5000 nM	C=CC(=O)N1CCC(n2cnc3c(OC[C@@H]4CCCN4C)nc4c(F)c(-c5c(O)cccc5F)c(Cl)cc4c32)CC1 (single isomer, unassigned) [Example 2a]
≤ 100 nM	≤ 100 nM	CC#CC(=O)N1CC[C@H](n2nnc3c(OC[C@@H]4CCCN4C)nc4c(F)c(-c5cccnc5C(F)(F)F)c(C)cc4c32)C[C@H]1CC#N (single isomer, unassigned) [Example 205a]
≤ 100 nM	≤ 100 nM	C=CC(=O)N1CC[C@H](n2cnc3c(N4CC(N(C)C)C4)nc4c(F)c(-c5ccc(F)c6cccnc56)c(C(F)(F)F)cc4c32)C[C@H]1CC#N [Example 229, 2-((2S,4S)-1-acryloyl-4-(4-(3-(dimethylamino)azetidin-1-yl)-6-fluoro-7-(5-fluoroquinolin-8-yl)-8-(trifluoromethyl)-1H-imidazo[4,5-c]quinolin-1-yl)piperidin-2-yl)acetonitrile]
≤ 100 nM	≤ 100 nM	Cc1cc2c(nc(O[C@@H](C)CN(C)C)c3nnn([C@H]4CCN(C(=O)/C=C/CF)[C@H](CC#N)C4)c32)c(F)c1-c1ccc(F)cc1 [Example 134, 2-((2S,4S)-4-(4-(((S)-1-(dimethylamino)propan-2-yl)oxy)-6-fluoro-7-(4-fluorophenyl)-8-methyl-1H-[1,2,3]triazolo[4,5-c]quinolin-1-yl)-1-((E)-4-fluorobut-2-enoyl)piperidin-2-yl)acetonitrile]
≤ 100 nM	≤ 100 nM	C=CC(=O)N1CC[C@H](n2cnc3c(N4CC(N(C)C)C4)nc4c(F)c(-c5c(OC)ncc(Cl)c5C)c(Cl)cc4c32)C[C@H]1CC#N [Example 90, 2-((2S,4S)-1-acryloyl-4-(8-chloro-7-(5-chloro-2-methoxy-4-methylpyridin-3-yl)-4-(3-(dimethylamino)azetidin-1-yl)-6-fluoro-1H-imidazo[4,5-c]quinolin-1-yl)piperidin-2-yl)acetonitrile]
≤ 100 nM	≤ 100 nM	C=CC(=O)N1CC[C@H](n2cnc3c(N4CC(C)(N(C)C)C4)nc4c(F)c(-c5ccc(F)cc5)c(Cl)cc4c32)C[C@H]1CC#N [Example 120, 2-((2S,4S)-1-acryloyl-4-(8-chloro-4-(3-(dimethylamino)-3-methylazetidin-1-yl)-6-fluoro-7-(4-fluorophenyl)-1H-imidazo[4,5-c]quinolin-1-yl)piperidin-2-yl)acetonitrile]
≤ 100 nM	≤ 100 nM	CC#CC(=O)N1CC[C@H](n2cnc3c(OC[C@@H]4CCCN4C)nc4c(F)c(-c5c(C)c(Cl)cc6[nH]ncc56)c(Cl)cc4c32)C[C@H]1CC#N [Example 180, 2-((2S,4S)-1-(but-2-ynoyl)-4-(8-chloro-7-(6-chloro-5-methyl-1H-indazol-4-yl)-6-fluoro-4-(((S)-1-methylpyrrolidin-2-yl)methoxy)-1H-imidazo[4,5-c]quinolin-1-yl)piperidin-2-yl)acetonitrile]
≤ 100 nM	≤ 100 nM	C=CC(=O)N1CC[C@H](n2nnc3c(N4CC(N(C)C)C4)nc4c(F)c(-c5cccc(C#N)c5C)c(Cl)cc4c32)C[C@H]1CC#N [Example 115, 3-(1-((2S,4S)-1-acryloyl-2-(cyanomethyl)piperidin-4-yl)-8-chloro-4-(3-(dimethylamino)azetidin-1-yl)-6-fluoro-1H-[1,2,3]triazolo[4,5-c]quinolin-7-yl)-2-methylbenzonitrile]
